Oligonucleotides are written 5' to 3', each unit as a sugar letter and its base; * is a phosphorothioate linkage, no mark a phosphodiester; rarer units and linkages stand in square brackets, end groups in braces. Plain capitals give the bases only. d = 2'-deoxy (DNA); r = 2'-OH (RNA)
target: P2RX3; test: reporter assay of Huesken 2005; conditions: siRNA
Also: test concentration or dose not given here.

Question: For “sense rUrCrGrGrCrUrGrGrGrUrGrUrGrCrGrArCrUrUdTdT / antisense rArArGrUrCrGrCrArCrArCrCrCrArGrCrCrGrAdTdC”, which normalised inhibition (eCFP-eYFP dual reporter) is on record?
Answer: 77.1%

Question: Which normalised inhibition (eCFP-eYFP dual reporter) does the source give for “sense rArCrCrUrGrUrGrArGrArUrCrCrArGrGrGrCrUdTdT / antisense rArGrCrCrCrUrGrGrArUrCrUrCrArCrArGrGrUdCdC” here?
Answer: 50.2%

Question: For “sense rCrCrGrGrCrUrCrGrArCrArGrCrGrUrUrUrCrUdTdT / antisense rArGrArArArCrGrCrUrGrUrCrGrArGrCrCrGrGdGdT”, which normalised inhibition (eCFP-eYFP dual reporter) is on record?
Answer: 98%

Question: With “sense rUrUrUrCrUrGrCrCrCrCrArUrCrUrUrGrCrGrGdTdT / antisense rCrCrGrCrArArGrArUrGrGrGrGrCrArGrArArAdGdG” as the substance, how does the normalised inhibition (eCFP-eYFP dual reporter) read?
Answer: 35.2%

Question: With “sense rCrCrUrGrArCrArGrCrCrArGrGrGrArCrArUrGdTdT / antisense rCrArUrGrUrCrCrCrUrGrGrCrUrGrUrCrArGrGdTdT” as the substance, how does the normalised inhibition (eCFP-eYFP dual reporter) read?
Answer: 33.4%

Question: For “sense rCrGrCrGrGrCrUrUrUrGrArCrCrArArCrCrCrAdTdT / antisense rUrGrGrGrUrUrGrGrUrCrArArArGrCrCrGrCrGdAdT”, which normalised inhibition (eCFP-eYFP dual reporter) is on record?
Answer: 84.4%

Question: With “sense rArGrGrArGrArArArUrArCrCrGrCrUrGrUrGrUdTdT / antisense rArCrArCrArGrCrGrGrUrArUrUrUrCrUrCrCrUdCdA” as the substance, how does the normalised inhibition (eCFP-eYFP dual reporter) read?
Answer: 71.8%

Question: With “sense rGrCrGrGrCrCrUrUrUrArCrUrUrCrUrGrUrGrGdTdT / antisense rCrCrArCrArGrArArGrUrArArArGrGrCrCrGrCdCdA” as the substance, how does the normalised inhibition (eCFP-eYFP dual reporter) read?
Answer: 61.4%

Question: With “sense rUrArArCrCrArArGrGrUrGrArArGrGrGrCrUrCdTdT / antisense rGrArGrCrCrCrUrUrCrArCrCrUrUrGrGrUrUrAdCdC” as the substance, how does the normalised inhibition (eCFP-eYFP dual reporter) read?
Answer: 16.2%

Question: How did the normalised inhibition (eCFP-eYFP dual reporter) turn out when “sense rGrGrCrCrUrUrUrArCrUrUrCrUrGrUrGrGrGrAdTdT / antisense rUrCrCrCrArCrArGrArArGrUrArArArGrGrCrCdGdC” was run?
Answer: 80.2%

Question: Which normalised inhibition (eCFP-eYFP dual reporter) does the source give for “sense rGrArGrArArArArGrCrArGrCrGrUrGrUrCrCrCdTdT / antisense rGrGrGrArCrArCrGrCrUrGrCrUrUrUrUrCrUrCdAdG” here?
Answer: 68.3%

Question: With “sense rCrGrGrCrUrCrGrArCrArGrCrGrUrUrUrCrUrGdTdT / antisense rCrArGrArArArCrGrCrUrGrUrCrGrArGrCrCrGdGdG” as the substance, how does the normalised inhibition (eCFP-eYFP dual reporter) read?
Answer: 86%

Question: Which normalised inhibition (eCFP-eYFP dual reporter) does the source give for “sense rArArUrCrArGrArUrGrCrArArGrGrArUrUrCrUdTdT / antisense rArGrArArUrCrCrUrUrGrCrArUrCrUrGrArUrUdTdT” here?
Answer: 79.2%

Question: Which normalised inhibition (eCFP-eYFP dual reporter) does the source give for “sense rUrUrArArGrArUrCrGrGrCrUrGrGrGrUrGrUrGdTdT / antisense rCrArCrArCrCrCrArGrCrCrGrArUrCrUrUrArAdTdG” here?
Answer: 55.4%

Question: With “sense rGrArCrCrCrUrUrUrCrUrGrCrCrCrCrArUrCrUdTdT / antisense rArGrArUrGrGrGrGrCrArGrArArArGrGrGrUrCdCdT” as the substance, how does the normalised inhibition (eCFP-eYFP dual reporter) read?
Answer: 65.8%

Question: With “sense rUrGrArCrArGrCrCrArGrGrGrArCrArUrGrArAdTdT / antisense rUrUrCrArUrGrUrCrCrCrUrGrGrCrUrGrUrCrAdGdG” as the substance, how does the normalised inhibition (eCFP-eYFP dual reporter) read?
Answer: 90.5%

Question: With “sense rGrArArArCrGrCrCrCrArUrCrArUrGrArUrGrGdTdT / antisense rCrCrArUrCrArUrGrArUrGrGrGrCrGrUrUrUrCdCdA” as the substance, how does the normalised inhibition (eCFP-eYFP dual reporter) read?
Answer: 48.7%

Question: How did the normalised inhibition (eCFP-eYFP dual reporter) turn out when “sense rUrGrUrCrUrGrArUrUrArCrGrUrGrArCrGrCrCdTdT / antisense rGrGrCrGrUrCrArCrGrUrArArUrCrArGrArCrAdCdA” was run?
Answer: 43.1%

Question: Which normalised inhibition (eCFP-eYFP dual reporter) does the source give for “sense rGrGrCrCrGrCrUrGrCrGrUrGrArArCrUrArCrAdTdT / antisense rUrGrUrArGrUrUrCrArCrGrCrArGrCrGrGrCrCdAdG” here?
Answer: 72.3%

Question: How did the normalised inhibition (eCFP-eYFP dual reporter) turn out when “sense rArCrUrUrCrArCrUrArUrUrUrUrCrArUrCrArAdTdT / antisense rUrUrGrArUrGrArArArArUrArGrUrGrArArGrUdTdC” was run?
Answer: 92.9%

Question: With “sense rGrGrGrCrArUrUrArArGrArUrCrGrGrCrUrGrGdTdT / antisense rCrCrArGrCrCrGrArUrCrUrUrArArUrGrCrCrCdAdG” as the substance, how does the normalised inhibition (eCFP-eYFP dual reporter) read?
Answer: 59.7%

Question: With “sense rGrGrGrUrArGrGrGrGrArCrGrUrGrGrUrCrArAdTdT / antisense rUrUrGrArCrCrArCrGrUrCrCrCrCrUrArCrCrCdGdC” as the substance, how does the normalised inhibition (eCFP-eYFP dual reporter) read?
Answer: 94.9%

Question: Which normalised inhibition (eCFP-eYFP dual reporter) does the source give for “sense rGrGrCrCrGrArCrCrArGrUrArCrArArArGrCrCdTdT / antisense rGrGrCrUrUrUrGrUrArCrUrGrGrUrCrGrGrCrCdCdC” here?
Answer: 68%

Question: For “sense rGrArArGrCrUrGrArGrArArCrUrUrCrArCrUrAdTdT / antisense rUrArGrUrGrArArGrUrUrCrUrCrArGrCrUrUrCdCdA”, which normalised inhibition (eCFP-eYFP dual reporter) is on record?
Answer: 88.8%

Question: Which normalised inhibition (eCFP-eYFP dual reporter) does the source give for “sense rGrGrArArArCrGrCrCrCrArUrCrArUrGrArUrGdTdT / antisense rCrArUrCrArUrGrArUrGrGrGrCrGrUrUrUrCrCdAdC” here?
Answer: 74.8%

Question: With “sense rCrUrArCrGrCrCrArArCrArGrArGrUrCrArUrGdTdT / antisense rCrArUrGrArCrUrCrUrGrUrUrGrGrCrGrUrArGdAdG” as the substance, how does the normalised inhibition (eCFP-eYFP dual reporter) read?
Answer: 53.4%

Question: With “sense rUrGrCrCrGrCrUrUrCrCrArCrCrCrGrGrArCrAdTdT / antisense rUrGrUrCrCrGrGrGrUrGrGrArArGrCrGrGrCrAdGdG” as the substance, how does the normalised inhibition (eCFP-eYFP dual reporter) read?
Answer: 93.7%

Question: For “sense rCrArUrCrArArCrCrGrArGrUrArGrUrUrCrArGdTdT / antisense rCrUrGrArArCrUrArCrUrCrGrGrUrUrGrArUrGdAdT”, which normalised inhibition (eCFP-eYFP dual reporter) is on record?
Answer: 74.7%

Question: Which normalised inhibition (eCFP-eYFP dual reporter) does the source give for “sense rGrCrGrGrGrUrArGrGrGrGrArCrGrUrGrGrUrCdTdT / antisense rGrArCrCrArCrGrUrCrCrCrCrUrArCrCrCrGrCdAdA” here?
Answer: 37.2%

Question: For “sense rCrGrCrCrArCrCrUrCrArGrGrGrCrArCrCrUrCdTdT / antisense rGrArGrGrUrGrCrCrCrUrGrArGrGrUrGrGrCrGdTdC”, which normalised inhibition (eCFP-eYFP dual reporter) is on record?
Answer: 13%

Question: For “sense rArArGrArCrCrUrGrCrCrGrCrUrUrCrCrArCrCdTdT / antisense rGrGrUrGrGrArArGrCrGrGrCrArGrGrUrCrUrUdCdA”, which normalised inhibition (eCFP-eYFP dual reporter) is on record?
Answer: 39.9%

Question: For “sense rArCrGrCrCrArArCrArGrArGrUrCrArUrGrGrAdTdT / antisense rUrCrCrArUrGrArCrUrCrUrGrUrUrGrGrCrGrUdAdG”, which normalised inhibition (eCFP-eYFP dual reporter) is on record?
Answer: 89.2%

Question: How did the normalised inhibition (eCFP-eYFP dual reporter) turn out when “sense rUrUrGrCrGrGrGrGrCrArGrGrArUrUrUrUrGrCdTdT / antisense rGrCrArArArArUrCrCrUrGrCrCrCrCrGrCrArAdAdC” was run?
Answer: 33.4%

Question: “sense rArGrGrUrGrGrArCrArCrArGrUrGrGrArArArCdTdT / antisense rGrUrUrUrCrCrArCrUrGrUrGrUrCrCrArCrCrUdCdC” was tested. Which normalised inhibition (eCFP-eYFP dual reporter) did it give?
Answer: 91.4%

Question: “sense rCrArUrCrArUrCrCrCrCrArCrCrArUrCrArUrCdTdT / antisense rGrArUrGrArUrGrGrUrGrGrGrGrArUrGrArUrGdTdT” was tested. Which normalised inhibition (eCFP-eYFP dual reporter) did it give?
Answer: 38.5%

Question: Which normalised inhibition (eCFP-eYFP dual reporter) does the source give for “sense rArArCrCrGrArGrUrArGrUrUrCrArGrCrUrUrCdTdT / antisense rGrArArGrCrUrGrArArCrUrArCrUrCrGrGrUrUdGdA” here?
Answer: 62%

Question: For “sense rArGrUrCrGrGrUrGrGrUrUrGrUrGrArArGrArGdTdT / antisense rCrUrCrUrUrCrArCrArArCrCrArCrCrGrArCrUdTdG”, which normalised inhibition (eCFP-eYFP dual reporter) is on record?
Answer: 64.9%
